Measurements taken from patent publication EP3266784A1, “PROTEIN ARGININE N-METHYLTRANSFERASES INHIBITORS AND USES THEREOF” (PIERRE FABRE MEDICAMENT, priority 2016, dated 2018).

Tests used:
Type in all cases: biochemical
human PRMT1 enzyme = human PRMT1 enzyme (Homo sapiens, UniProt Q99873); assay: PRMT1 inhibition assay (radioactive [3H]SAM methyl transfer, filter binding); conditions: compound at 100µM, 700 nM [3H]SAM, 50 nM Histone H4 full length, 20 min at 22°C; for inhibition at 100 µM: read-out: PRMT1 100µM, percent inhibition of the control enzyme activity
Chain of human PRMT1 enzyme (Q99873 whole entry): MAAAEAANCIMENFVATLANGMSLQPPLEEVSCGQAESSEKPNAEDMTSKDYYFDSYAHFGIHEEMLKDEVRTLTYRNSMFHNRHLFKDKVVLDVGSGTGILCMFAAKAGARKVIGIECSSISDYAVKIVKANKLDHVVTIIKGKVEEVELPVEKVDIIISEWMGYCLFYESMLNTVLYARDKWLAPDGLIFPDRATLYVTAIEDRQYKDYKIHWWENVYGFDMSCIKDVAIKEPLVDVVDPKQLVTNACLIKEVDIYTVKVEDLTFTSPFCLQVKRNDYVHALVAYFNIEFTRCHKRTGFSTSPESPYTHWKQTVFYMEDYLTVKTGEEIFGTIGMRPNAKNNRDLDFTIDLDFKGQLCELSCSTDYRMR
Protocol: (§1) The inhibitory effect of compounds on the methyltransferase activity of human PRMT was evaluated via the measurement of its capacity to transfer methyl groups in a radioactivity assay.
The test compound, reference compound, or water (control) were incubated for 20 min at 22°C with 20 ng human PRMT1 enzyme, 700 nM [^3H]SAM and 50 nM Histone H4 full length in a buffer containing 45 mM Tris-HCl (pH 8), 4.5 mM MgCl2, 45 mM NaCl and 3.6 mM DTT.
(§2) For control basal measurements, the enzyme is omitted from the reaction mixture. Following incubation, the reaction is stopped by adding 33 mM citric acid and the samples are filtered rapidly under vacuum through glass fiber filters (GF/B, Packard) presoaked with 33 mM citric acid and rinsed several times with ice-cold 33 mM citric acid using a 96-sample cell harvester (Unifilter, Packard). The filters are dried then counted for radioactivity in a scintillation counter (Topcount, Packard) using a scintillation cocktail (Microscint 0, Packard).
The results are expressed as a percent inhibition of the control enzyme activity. The standard reference compound is SAH, which is tested in each experiment at several concentrations to obtain a competition curve from which its IC50 is calculated (Cheng et al., 2004, J. Biol. Chem. 279:23892).

human PRMT4 enzyme = target: T1, human PRMT4 enzyme (Homo sapiens, UniProt Q86X55); assay: PRMT4 inhibition assay (radioactive [3H]SAM methyl transfer, filter binding); conditions: 60 nM [3H]SAM, 25 nM Histone H3 full length, 1 h at 22°C; for inhibition at 10 µM: read-out: PRMT4/CARM1 10µM, percent inhibition of the control enzyme activity; for inhibition at 100 µM: read-out: PRMT4/CARM1 100µM, percent inhibition of the control enzyme activity; for IC50: read-out: PRMT4/CARM1 IC50
T1 sequence (Q86X55 1-608): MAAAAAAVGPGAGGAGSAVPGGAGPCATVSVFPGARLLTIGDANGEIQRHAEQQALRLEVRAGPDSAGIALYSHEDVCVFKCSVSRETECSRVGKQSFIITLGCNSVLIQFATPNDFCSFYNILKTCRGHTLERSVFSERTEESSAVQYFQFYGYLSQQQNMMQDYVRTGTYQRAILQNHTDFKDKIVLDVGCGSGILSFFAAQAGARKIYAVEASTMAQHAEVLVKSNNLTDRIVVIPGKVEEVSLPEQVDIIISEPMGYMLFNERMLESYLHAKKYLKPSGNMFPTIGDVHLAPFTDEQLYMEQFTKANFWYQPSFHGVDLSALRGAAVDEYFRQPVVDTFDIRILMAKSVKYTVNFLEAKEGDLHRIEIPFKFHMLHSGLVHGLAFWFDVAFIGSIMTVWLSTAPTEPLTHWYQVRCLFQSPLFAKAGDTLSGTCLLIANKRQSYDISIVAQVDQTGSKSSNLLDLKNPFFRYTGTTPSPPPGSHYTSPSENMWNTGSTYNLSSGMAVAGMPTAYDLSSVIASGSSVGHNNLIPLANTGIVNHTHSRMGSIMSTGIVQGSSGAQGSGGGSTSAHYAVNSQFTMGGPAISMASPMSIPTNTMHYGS
Protocol: as §1
The test compound, reference compound, or water (control) were incubated for 1 h at 22°C with 2.5 ng human PRMT4 enzyme, 60 nM [^3H]SAM and 25 nM Histone H3 full length in a buffer containing 45 mM Tris-HCl (pH 8), 45 mM NaCl, 4.5 mM MgCl2 and 3.6 mM DTT.
as §2
(§3) The results are expressed as a percent inhibition of the control enzyme activity. The standard reference compound is SAH, which is tested in each experiment at several concentrations to obtain a competition curve from which its IC50 is calculated (Selvi et al., 2010, J. Biol. Chem., 285: 7143).

human PRMT6 enzyme = human PRMT6 enzyme (Homo sapiens, UniProt Q96LA8); assay: PRMT6 inhibition assay (radioactive [3H]SAM methyl transfer, filter binding); conditions: 120 nM [3H]SAM, 25 nM Histone H3 full length, 120 min at 22°C; for inhibition at 10 µM: compound at 10µM, read-out: PRMT6 10µM, percent inhibition of the control enzyme activity; for inhibition at 100 µM: read-out: PRMT6 100µM, percent inhibition of the control enzyme activity
Chain of human PRMT6 enzyme (Q96LA8 whole entry): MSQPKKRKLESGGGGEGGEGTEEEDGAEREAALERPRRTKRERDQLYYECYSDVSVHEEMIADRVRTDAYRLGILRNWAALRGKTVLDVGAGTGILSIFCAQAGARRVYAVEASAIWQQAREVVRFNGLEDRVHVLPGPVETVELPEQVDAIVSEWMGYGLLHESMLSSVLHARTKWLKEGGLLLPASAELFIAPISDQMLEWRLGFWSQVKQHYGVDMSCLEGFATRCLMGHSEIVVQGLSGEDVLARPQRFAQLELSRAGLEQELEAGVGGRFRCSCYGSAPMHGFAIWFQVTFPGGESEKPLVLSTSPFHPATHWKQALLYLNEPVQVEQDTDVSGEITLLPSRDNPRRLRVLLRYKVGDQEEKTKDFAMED
Protocol: as §1
The test compound, reference compound, or water (control) were incubated for 120 min at 22°C with 10 ng human PRMT6 enzyme, 120 nM [^3H]SAM and 25 nM Histone H3 full length in a buffer containing 45 mM Tris-HCl (pH 8), 45 mM NaCl, 4.5 mM MgCl2 and 3.6 mM DTT.
as §2
The results are expressed as a percent inhibition of the control enzyme activity. The standard reference compound is SAH, which is tested in each experiment at several concentrations to obtain a competition curve from which its IC50 is calculated. (lberg et al., 2007, J. Biol. Chem., 283: 3006).

human PRMT7 enzyme = target: T2, human PRMT7 enzyme (Homo sapiens, UniProt Q9NVM4); assay: PRMT7 inhibition assay (radioactive [3H]SAM methyl transfer, filter binding); conditions: 250 nM [3H]SAM, 4 nM Histone H2B (21-41) biotin labelled, 90 min at 22°C; for inhibition at 10 µM: read-out: PRMT7 10µM, percent inhibition of the control enzyme activity; for inhibition at 100 µM: read-out: PRMT7 100µM, percent inhibition of the control enzyme activity
T2 sequence (Q9NVM4 1-692): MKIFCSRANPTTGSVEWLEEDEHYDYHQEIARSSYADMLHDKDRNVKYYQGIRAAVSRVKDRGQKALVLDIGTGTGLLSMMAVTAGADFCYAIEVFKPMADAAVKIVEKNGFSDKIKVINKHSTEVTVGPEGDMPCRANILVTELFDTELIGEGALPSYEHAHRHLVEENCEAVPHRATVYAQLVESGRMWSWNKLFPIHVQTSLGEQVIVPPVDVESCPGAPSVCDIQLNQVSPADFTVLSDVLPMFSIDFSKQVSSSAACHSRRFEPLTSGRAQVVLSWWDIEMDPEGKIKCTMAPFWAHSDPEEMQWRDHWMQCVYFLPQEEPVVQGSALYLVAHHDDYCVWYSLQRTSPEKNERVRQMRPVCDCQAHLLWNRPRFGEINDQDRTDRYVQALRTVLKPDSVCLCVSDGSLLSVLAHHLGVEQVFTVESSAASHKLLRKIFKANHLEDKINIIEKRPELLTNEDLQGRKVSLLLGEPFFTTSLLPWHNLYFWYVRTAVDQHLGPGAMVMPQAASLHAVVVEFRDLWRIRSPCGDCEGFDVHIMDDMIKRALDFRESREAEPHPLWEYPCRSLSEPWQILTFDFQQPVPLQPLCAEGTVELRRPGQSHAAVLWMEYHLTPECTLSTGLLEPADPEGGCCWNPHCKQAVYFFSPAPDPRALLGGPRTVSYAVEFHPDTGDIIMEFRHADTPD
Protocol: as §1
The test compound, reference compound, or water (control) were incubated for 90 min at 22°C with 12.5 ng human PRMT7 enzyme, 250 nM [^3H]SAM and 4 nM Histone H2B (21-41) biotin labelled in a buffer containing 45 mM Tris-HCl (pH 8.7), 0.0045% Tween20, 0.009% HSA and 0.9 mM DTT.
as §2
as §3, with “(Zurita-Lopez” for “(Selvi”, “2012,” for “2010,”, “287(11):7859).” for “285: 7143).”

Row | Molecule | inhibition at 100 µM (human PRMT1 enzyme) | inhibition at 10 µM (human PRMT4 enzyme; compound at 10µM) | inhibition at 100 µM (human PRMT4 enzyme; compound at 100µM) | inhibition at 10 µM (human PRMT6 enzyme) | inhibition at 100 µM (human PRMT6 enzyme; compound at 100µM) | inhibition at 10 µM (human PRMT7 enzyme; compound at 10µM) | inhibition at 100 µM (human PRMT7 enzyme; compound at 100µM) | IC50 (human PRMT4 enzyme) | further results
1 | COCn1cc(CN(CCC(N)C(=O)O)CC2OC(n3cnc4c(N)ncnc43)C(O)C2O)c(N)nc1=O (centres unmarked) [Compound B] | 24% | 21% | 59% | 3% | 61% | 30% | 81% | – | –
2 | COCn1cc(CNC[C@H]2O[C@@H](n3cnc4c(N)ncnc43)[C@H](O)[C@@H]2O)c(N)nc1=O [Compound A, 1-(methoxymethyl)-5-(N-(5'-deoxyadenosin-5'-yl)aminomethyl)cytosine 5'-deoxy-5'-((1-(methoxymethyl)cytosin-5-yl)methylamino)adenosine] | – | – | 21% | – | – | – | 12% | – | –
3 | 1-(methoxymethyl)-5-(N-(5'-deoxyadenosin-5'-yl)aminomethyl)cytosine | – | – | – | – | – | – | – | 1.9 µM | PRMT1 100µM, percent inhibition of the control enzyme activity (human PRMT1 enzyme): 13%; PRMT4/CARM1 10µM, percent inhibition of the control enzyme activity (human PRMT4 enzyme; compound at 10µM): 81%; PRMT4/CARM1 100µM, percent inhibition of the control enzyme activity (human PRMT4 enzyme; compound at 100µM): 99%; PRMT6 100µM, percent inhibition of the control enzyme activity (human PRMT6 enzyme; compound at 100µM): 20%; PRMT7 10µM, percent inhibition of the control enzyme activity (human PRMT7 enzyme; compound at 10µM): 33%; PRMT7 100µM, percent inhibition of the control enzyme activity (human PRMT7 enzyme; compound at 100µM): 89%
4 | COCn1cc(CN(CCC(N)C(=O)O)CCC2OC(n3cnc4c(N)ncnc43)C(O)C2O)c(N)nc1=O (centres unmarked) [D] | 42% | 54% | 88% | 8% | 47% | 46% | 83% | 14 µM | –
5 | Nc1nc(=O)n(CCOc2ccc(Br)cc2)cc1CNCC[C@H]1O[C@@H](n2cnc3c(N)ncnc32)[C@H](O)[C@@H]1O [F, 5'-deoxy-5'-(N-((1-(2-(4-bromophenoxy)ethyl)-cytosin-5-yl)methyl)-aminomethyl) adenosine] | – | 43% | – | – | – | – | – | – | –
6 | Nc1nc(=O)n(CCOc2ccccc2)cc1CNCCC1OC(n2cnc3c(N)ncnc32)C(O)C1O (centres unmarked) [E, 5'-deoxy-5'-(N-((1-(2-(4-phenoxy)ethyl)-cytosin-5-yl)methyl)-aminomethyl) adenosine] | – | 35% | – | – | – | – | – | – | –
